Data reported in patent US20260364134A1, “AGENT FOR SUPPRESSING AMYLOID BETA AGGREGATION/DEPOSITION AND AGENT FOR SUPPRESSING COGNITIVE FUNCTION DECLINE/IMPROVING COGNITIVE FUNCTION IN A SUBJECT” (KANEKA CORPORATION, priority 2023, published 2026).

What was measured:
[1] = biological target: amyloid β (Aβ) in cerebral organoids (Homo sapiens, UniProt P05067); assay: Aβ aggregation/deposition suppression in cerebral organoids (QD-Aβ40/Aβ42, fluorescence microscopy); type: cell-based; conditions: Example 3, 24 hours after addition
amyloid β (Aβ) in cerebral organoids, sequence (P05067 672-713): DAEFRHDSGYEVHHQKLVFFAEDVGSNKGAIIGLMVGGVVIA
Protocol: The end of a 1000-μl tip was cut off with sterilized scissors, and the organoids produced in Example 1 that had grown to a diameter of 1 mm or more were aspirated without disrupting them, and transferred to a U-bottom 96-well plate. […]
The next day, all of the culture supernatant was removed without aspirating the organoid, and 150 μl of fresh NbM medium was added. The cultured organoids were then observed and photographed under a fluorescence microscope.
Using a fluorescence microscope (BZ-X800 manufactured by KEYENCE CORPORATION), the cultured organoids in Example 2 were photographed in a bright field at a high resolution with an exposure time of 1/500 s to 1/2000 s, or at a high sensitivity with an exposure time of 1/2000 s to 1/5000 s, with Z stacks with a pitch of 20 μm. […] Subsequently, to observe the deposition of quantum dot-modified amyloid β in the cultured organoid, red fluorescence was observed using a TRITC lens at a high sensitivity with an exposure time of ¼ s to 1/8.5 s, and images were obtained according to the procedure described above.
Each of the images obtained above was analyzed as follows. […] The threshold of the loaded bright-field image was set to 200, and the organoid area (organoid surface area) was calculated. […]
The black balance level of image processing was adjusted for the fluorescent images of various tests. First, the negative control image was read out. […]

Aβ = conditions: cited from earlier work

O=C(/C=C/c1ccc(O)c(O)c1)O[C@H](Cc1ccc(O)c(O)c1)C(=O)O [rosmarinic acid, Rosmarinic acid]
Effect of suppressing Aβ aggregation/deposition in cerebral organoids (in words) [1]: not a drug that has an effect of suppressing Aβ aggregation/deposition in cerebral organoids
Aβ aggregation/deposition suppression rate in cerebral organoids ([1]; rosmarinic acid final 50 μM, QD-Aβ40 30 nM, Aβ42 10 μM): 3.9%
effect of suppressing Aβ aggregation (known) (Aβ): known to have an effect of suppressing Aβ aggregation
